# Results: patent US5961483A, “Iontophoretic delivery of cell adhesion inhibitors” (priority 1997, dated 1999)
# “And” between values parts separate entries of the source, which are not always exact repeats. Equal entries are not always repeated. Structures can show the parent of a compound that is named as a salt.
# Experiments:
# [1] = In vitro excised skin iontophoretic delivery (flow-through cells); assay type: in vitro ADME, porcine; settings: for delivery rate (FIG. 7): 50 mg/mL chloride salt
# Description: Patch Designs: The 2 compartment patch design includes an absorbent drug reservoir with 2 cm^2 skin-contacting area and volume of 0.30 mL. The drug reservoir is separated from the electrode compartment with a 100 MWCO ultrafiltration membrane. The electrode compartment included a silver anode and cation exchange media in a hydrogel. A monolithic patch design was also used, consisting of a sandwich composed of a silver anode in the middle of 2 layers of absorbent material. The patches are assembled and loaded with the dosing solution just before applying to the skin.
# Experimental Protocol: The iontophoretic delivery of a GPIIb/IIIa antagonist was carried out in a flow-through in vitro system. […] The patch was loaded a 10 mg/mL solution of the IIb/IIIa antagonist in 154 mM saline.
# A silver chloride mesh return cathode was located upstream of the polycarbonate flow-through cells. Freshly dermatomed (1 mm) porcine skin was mounted in the cells on a porous support. The patches were dosed with aqueous solutions of the drug and then placed on top of the excised skin. The patches were secured by a spring-loaded mechanism that maintained even pressure over the patch. The cells were "perfused" by means of a peristaltic pump which pulls receiver solution through them. Effluents from the cells were collected with a fraction collector. Flow rates were typically 0.25 mL/min. The receiver solution was an isotonic pH 7.4 buffered saline solution containing 10 mM HEPES, 100 mM NaCl, PEG 400, and a surfactant, Pluronic P-103. lontophoresis current (50 μA) was provided by WPI power cells, and the applied currents and cell voltages were recorded with a Fluke databucket.
# Results: The effluent receiver solution was measured in a series of six runs, to determine whether the ester was hydrolyzed during the period of the iontophoresis. Results were obtained by means of liquid scintillation counting (radioactivity), and HPLC-UV. The HPLC results are estimates based on calibration for the ester form only.
# Patches: A dual compartment 2 cm^2 patch design, loaded with 100 mg/mL of the GPIIb/IIIa antagonist of Example 1, with a size exclusion or anion exchange membrane separator.
# Experimental Protocol: See Example 1, with current applied at 400 μA.
# Patches: A dual compartment 2 cm^2 patch design, loaded with 50 mg/mL chloride salt of the IIb/IIIa antagonist.
# Experimental Protocol: See Example 1, current applied at 100 μA and 200 μA.
# Patches: A dual compartment 2 cm^2 patch design, loaded with either: (1) a 1 mM NaCl, 150 mg/mL formulation of the IIb/IIIa antagonist of Example 1, or (2) a 75 mM NaCl, 100 mg/mL formulation of the drug.
# Experimental Protocol: See Example 1, current applied at 100 μA for the 1 mM NaCl sample, and at 400 μA for the 75 mM NaCl sample.
# [2] = Assay of extracts of the patch following completion of iontophoresis; assay type: in vitro ADME
# [3] = In vivo swine experiments (iontophoretic delivery, plasma levels; comparison with constant IV infusion); parameters: species or system Yorkshire swine
# Description: Patch Design: Same as in Example 1.
# Experimental Protocol: In each experiment, the patches were loaded with a 20 mg/mL solution of the same IIb/IIIa antagonist used in Example 1 in 154 mM saline, immediately before application to the skin of the animals. Unanesthetized Yorkshire swine with weights of about 20 to 35 kg were used. The skin sites receiving the patches were wiped clean with moist gauze pads. Patches were overwrapped with an adhesive, elastic wrap to hold the patches in place. Separate constant current (100 μA) power supplies were provided for each iontophoresis patch system. Current and voltage readings were made and recorded by on-board dataloggers (Fluke databuckets).
# Blood samples were withdrawn from the vena cava through an IV catheter into VACUTAINER™ blood collection tubes containing EDTA. After gentle mixing, the tubes were centrifuged to separate the plasma, which was transferred to clean polypropylene tubes and frozen on dry ice. Frozen samples were stored at -80° C. until assayed.
# Results: FIGS. 4 and 5 provide a comparative illustration of the in vivo delivery of the GPIIb/IIIa antagonist (mentioned in Example 1) to pigs using constant IV infusion (FIG. 4) and constant iontophoresis (FIG. 5). IV infusion employed the acid form of the drug at an infusion rate of 10 μg/h.
# [4] = Physicochemical properties; settings: pH 4
Structure (SMILES),constancy of flux (FIG. 3) [1],"delivery rate profile (FIG. 8) ([1]; 1 mM NaCl, 150 mg/mL at 100 μA and 75 mM NaCl, 100 mg/mL at 400 μA, 24 hour iontophoresis)","dependence of in vitro delivery on current (FIG. 3) ([1]; 10 mg/mL drug, 9 mg/mL NaCl)","variability in delivery from skin to skin (FIG. 2) ([1]; 10 mg/mL, 154 mM NaCl, 50 μA)","delivery, anion exchange compared with size exclusion membrane patch (FIG. 6) ([1]; dual compartment 2 cm^2 patch, 100 mg/mL, 400 μA)","delivery rate profile (FIG. 6) ([1]; dual compartment patches, 100 mg/mL, 400 μA)","Total (Liquid Scintillation Assay) ([1]; effluent receiver solution, 10 mg/mL in 154 mM saline, 50 μA, six runs (sample 1-6))",metabolism of the positively charged ester to the uncharged zwitterion ([1]; in the skin or receptor fluid),acid hydrolysis product in extracts of the patch [2],variability in plasma levels with iontophoresis ([3]; 20 mg/mL in 154 mM saline patch),"blood levels, iontophoresis compared with constant IV infusion (FIGS. 4 and 5) ([3]; 20 mg/mL in 154 mM saline patch vs acid form IV at 10 μg/h, plasma acid drug form)",solubility [4] [mg/mL],"delivery rate (FIG. 7) ([1]; 100 μA, nearly flat delivery) [µg/h]","delivery rate (FIG. 7) ([1]; 200 μA, nearly constant delivery) [µg/h]"
"CCCCOC(=O)N[C@@H](CNC(=O)C[C@H]1CC(c2ccc(C(=N)N)cc2)=NO1)C(=O)OC [GPIIb/IIIa antagonist, methyl-N^3-[2-{3-(4-formamidinophenyl)-isoxazolin-5(R)-yl}-acetyl]-N^2-(n-butyloxycarbonyl)-2,3-(S)-diaminopropanoate]",very constant over the 24 hour period,much more uniform delivery rates,proportional to increase in current,unexpectedly low,somewhat greater delivery,"the flux starts high, and falls as electrolyte cations accumulate with time",4.76 µg/mL and 4.15 µg/mL and 4.05 µg/mL and 4.87 µg/mL and 5.56 µg/mL and 5.19 µg/mL,"metabolized, to some extent",no detectable acid hydrolysis product,extremely low,similar,80,–,–
CCCCOC(=O)N[C@@H](CNC(=O)C[C@H]1CC(c2ccc(C(=N)N)cc2)=NO1)C(=O)OC [chloride salt of the IIb/IIIa antagonist],–,–,–,–,–,–,–,–,–,–,–,–,10 to 20,20 to 35
